From ChEMBL document CHEMBL1201862, “PubChem BioAssay data set” (2004)
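Where inhibition never reached the appropriate level, the endpoint shown equals the highest concentration tested. Otherwise, values were interpolated linearly from a five-concentration, 48-hour dose response in 96-well plates. GI50: concentration for 50% inhibition of growth.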 Calls of active or inactive are those of the source. No stated cut-off is given here; in the data, active = GI50 up to about 1.1 µM and inactive = higher.

How the values were obtained:
Test in all cases: NCI-60 cell line screen, 48 h
786-0 = tested on: 786-0
A498 = tested on: A498
A549 = tested on: A549
ACHN = tested on: ACHN
BT-549 = tested on: BT-549
CAKI-1 = tested on: CAKI-1
CCRF-CEM = tested on: CCRF-CEM
COLO 205 = tested on: COLO 205
DU-145 = tested on: DU-145
EKVX = tested on: EKVX
HCC 2998 = tested on: HCC 2998
HCT-116 = tested on: HCT-116
HCT-15 = tested on: HCT-15
HL-60 = tested on: HL-60
HOP-62 = tested on: HOP-62
HOP-92 = tested on: HOP-92
HT-29 = tested on: HT-29
Hs-578T = tested on: Hs-578T
IGROV-1 = tested on: IGROV-1
K562 = tested on: K562
KM12 = tested on: KM12
LOX IMVI = tested on: LOX IMVI
M14 = tested on: M14
MCF7 = tested on: MCF7
MDA-MB-231 = tested on: MDA-MB-231
MDA-MB-435 = tested on: MDA-MB-435
MDA-N = tested on: MDA-N
MOLT-4 = tested on: MOLT-4
Malme-3M = tested on: Malme-3M
NCI-H226 = tested on: NCI-H226
NCI-H23 = tested on: NCI-H23
NCI-H460 = tested on: NCI-H460
NCI-H522 = tested on: NCI-H522
NCI/ADR-RES = tested on: NCI/ADR-RES
OVCAR-3 = tested on: OVCAR-3
OVCAR-4 = tested on: OVCAR-4
OVCAR-5 = tested on: OVCAR-5
OVCAR-8 = tested on: OVCAR-8
PC-3 = tested on: PC-3
RXF 393 = tested on: RXF 393
SF-268 = tested on: SF-268
SF-295 = tested on: SF-295
SK-MEL-28 = tested on: SK-MEL-28
SK-MEL-5 = tested on: SK-MEL-5
SK-OV-3 = tested on: SK-OV-3
SN12C = tested on: SN12C
SNB-19 = tested on: SNB-19
SNB-75 = tested on: SNB-75
SR = tested on: SR
SW-620 = tested on: SW-620
T47D = tested on: T47D
TK-10 = tested on: TK-10
U-251 = tested on: U-251
UACC-257 = tested on: UACC-257
UACC-62 = tested on: UACC-62
UO-31 = tested on: UO-31
RPMI-8226 = tested on: RPMI-8226
SF-539 = tested on: SF-539
SK-MEL-2 = tested on: SK-MEL-2

SMILES: COc1ccc2c(c1)/C(=C(\C(Cl)=C(\Cl)N1CCCCC1)[N+](=O)[O-])N2
- GI50 (786-0): > 100 µM (inactive)
- GI50 (A498): > 100 µM (inactive)
- GI50 (A549): > 100 µM (inactive)
- GI50 (ACHN): > 100 µM (inactive)
- GI50 (BT-549): 98.6 µM (inactive)
- GI50 (CAKI-1): > 100 µM (inactive)
- GI50 (CCRF-CEM): 40.7 µM (inactive)
- GI50 (COLO 205): 59.2 µM (inactive)
- GI50 (DU-145): > 100 µM (inactive)
- GI50 (EKVX): 48.9 µM (inactive)
- GI50 (HCC 2998): > 100 µM (inactive)
- GI50 (HCT-116): > 100 µM (inactive)
- GI50 (HCT-15): > 100 µM
- GI50 (HL-60): > 100 µM (inactive)
- GI50 (HOP-62): > 100 µM (inactive)
- GI50 (HOP-92): > 100 µM (inactive)
- GI50 (HT-29): > 100 µM (inactive)
- GI50 (Hs-578T): > 100 µM (inactive)
- GI50 (IGROV-1): 90.6 µM (inactive)
- GI50 (K562): 42.1 µM (inactive)
- GI50 (KM12): > 100 µM (inactive)
- GI50 (LOX IMVI): > 100 µM (inactive)
- GI50 (M14): > 100 µM (inactive)
- GI50 (MCF7): > 100 µM (inactive)
- GI50 (MDA-MB-231): > 100 µM (inactive)
- GI50 (MDA-MB-435): > 100 µM (inactive)
- GI50 (MDA-N): > 100 µM (inactive)
- GI50 (MOLT-4): 27.2 µM (inactive)
- GI50 (Malme-3M): > 100 µM (inactive)
- GI50 (NCI-H226): 29.6 µM (inactive)
- GI50 (NCI-H23): > 100 µM (inactive)
- GI50 (NCI-H460): > 100 µM (inactive)
- GI50 (NCI-H522): 39.4 µM (inactive)
- GI50 (NCI/ADR-RES): > 100 µM (inactive)
- GI50 (OVCAR-3): 42.5 µM (inactive)
- GI50 (OVCAR-4): 87.5 µM (inactive)
- GI50 (OVCAR-5): > 100 µM (inactive)
- GI50 (OVCAR-8): 87.5 µM (inactive)
- GI50 (PC-3): > 100 µM (inactive)
- GI50 (RXF 393): 64 µM (inactive)
- GI50 (SF-268): > 100 µM (inactive)
- GI50 (SF-295): 80.5 µM (inactive)
- GI50 (SK-MEL-28): > 100 µM (inactive)
- GI50 (SK-MEL-5): 45.9 µM (inactive)
- GI50 (SK-OV-3): > 100 µM (inactive)
- GI50 (SN12C): > 100 µM (inactive)
- GI50 (SNB-19): > 100 µM (inactive)
- GI50 (SNB-75): > 100 µM (inactive)
- GI50 (SR): 27.1 µM (inactive)
- GI50 (SW-620): 71 µM (inactive)
- GI50 (T47D): > 100 µM (inactive)
- GI50 (TK-10): > 100 µM (inactive)
- GI50 (U-251): > 100 µM (inactive)
- GI50 (UACC-257): > 100 µM (inactive)
- GI50 (UACC-62): > 100 µM (inactive)
- GI50 (UO-31): > 100 µM (inactive)

SMILES: O=C(O)c1cccc(OCCOc2cccc(C(=O)O)c2[N+](=O)[O-])c1[N+](=O)[O-]
- GI50 (786-0): > 100 µM (inactive)
- GI50 (A498): > 100 µM (inactive)
- GI50 (A549): > 100 µM (inactive)
- GI50 (ACHN): > 100 µM (inactive)
- GI50 (BT-549): > 100 µM (inactive)
- GI50 (CAKI-1): > 100 µM (inactive)
- GI50 (CCRF-CEM): > 100 µM (inactive)
- GI50 (COLO 205): > 100 µM (inactive)
- GI50 (DU-145): > 100 µM (inactive)
- GI50 (EKVX): > 100 µM (inactive)
- GI50 (HCC 2998): > 100 µM (inactive)
- GI50 (HCT-116): > 100 µM (inactive)
- GI50 (HCT-15): > 100 µM
- GI50 (HL-60): > 100 µM (inactive)
- GI50 (HOP-62): > 100 µM (inactive)
- GI50 (HOP-92): > 100 µM (inactive)
- GI50 (HT-29): > 100 µM (inactive)
- GI50 (Hs-578T): > 100 µM (inactive)
- GI50 (IGROV-1): > 100 µM (inactive)
- GI50 (KM12): > 100 µM (inactive)
- GI50 (LOX IMVI): > 100 µM (inactive)
- GI50 (M14): > 100 µM (inactive)
- GI50 (MCF7): > 100 µM (inactive)
- GI50 (MDA-MB-231): > 100 µM (inactive)
- GI50 (MDA-MB-435): > 100 µM (inactive)
- GI50 (MDA-N): > 100 µM (inactive)
- GI50 (MOLT-4): > 100 µM (inactive)
- GI50 (Malme-3M): > 100 µM (inactive)
- GI50 (NCI-H226): > 100 µM (inactive)
- GI50 (NCI-H23): > 100 µM (inactive)
- GI50 (NCI-H460): > 100 µM (inactive)
- GI50 (NCI-H522): > 100 µM (inactive)
- GI50 (NCI/ADR-RES): > 100 µM (inactive)
- GI50 (OVCAR-3): > 100 µM (inactive)
- GI50 (OVCAR-4): > 100 µM (inactive)
- GI50 (OVCAR-5): > 100 µM (inactive)
- GI50 (OVCAR-8): > 100 µM (inactive)
- GI50 (PC-3): > 100 µM (inactive)
- GI50 (RPMI-8226): > 100 µM (inactive)
- GI50 (RXF 393): > 100 µM (inactive)
- GI50 (SF-268): > 100 µM (inactive)
- GI50 (SF-295): > 100 µM (inactive)
- GI50 (SF-539): > 100 µM (inactive)
- GI50 (SK-MEL-28): > 100 µM (inactive)
- GI50 (SK-MEL-2): > 100 µM (inactive)
- GI50 (SK-MEL-5): > 100 µM (inactive)
- GI50 (SK-OV-3): > 100 µM (inactive)
- GI50 (SN12C): > 100 µM (inactive)
- GI50 (SNB-19): > 100 µM (inactive)
- GI50 (SNB-75): > 100 µM (inactive)
- GI50 (SR): > 100 µM (inactive)
- GI50 (SW-620): > 100 µM (inactive)
- GI50 (T47D): > 100 µM (inactive)
- GI50 (TK-10): > 100 µM (inactive)
- GI50 (U-251): > 100 µM (inactive)
- GI50 (UACC-257): > 100 µM (inactive)
- GI50 (UACC-62): > 100 µM (inactive)
- GI50 (UO-31): > 100 µM (inactive)
